Reference: patent publication US20240174641A1, “HETEROCYCLIC COMPOUNDS CAPABLE OF […]” (Boehringer Ingelheim International GmbH, priority 2022, published 2024)

Assays:
dog STING (dSTING) = assay: Dog differential scanning fluorimetry (DSF) assay, thermal shift of dog STING protein; type: binding; settings: DSF (dDSF); 100 μM compound, 3 μM dog STING protein; Tm with ligand minus Tm of protein alone
In short: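 Dog STING residues 149–375, His-tag removed by TEV, tested at 3 μM with 100 μM compound, 5× SYPRO Orange and 2% DMSO in 20 mM Tris, 150 mM NaCl, pH 7.5. Heated 15–95 °C in 0.5 °C steps. Tm from Boltzmann fit, duplicates averaged; ΔTm relative to protein alone.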

STING = STING (Canis lupus familiaris, UniProt A0A8I3MH52); assay: Dog whole blood (dWB) assay, IFNb secretion by ELISA; type: cell-based; settings: canine Interferon-beta (IFNb) ELISA, 4 h incubation at 37° C.
Experimental: For the detection of STING activation in physiological environment dog whole blood (dWB) was stimulated by the cyclic dinucleotide cGAMP or a test compound. Pathway activity was monitored by measuring the IFNb production.
Compounds were delivered as 10 mM DMSO solution, diluted and transferred by using an Echo acoustic dispenser to the 384 well assay plate (Greiner #781182), pre-filled with 10 μl 1×HBSS in each well (10×HBSS (+Ca/+Mg), #14065-049, Gibco). Typically, 8 concentrations were used with the highest concentration at 10 μM in the final assay volume followed by approximately 1:4 dilution steps. DMSO concentration was set to 0.1% in the final assay volume. The 384-well assay plate contained 20 test compounds and DMSO in control and cGAMP standard wells. The dog whole blood was collected as Na-Citrate blood (e.g., 3.8% in Monovettes from Sarstedt) and kept at 4° C. overnight until use in the assay. 80 μl of the whole blood samples were transferred to each well of the 384-well assay plates filled with compound/1×HBSS. Blood plates were kept at room temperature for 60 minutes and continuous shaking with 450 rpm, covered with the lid, but not sealed. A 10×cGAMP assay solution was diluted from a 2 mM stock solution in 1×HBSS immediately before use at room temperature. 10 μl of the 10×cGAMP/HBSS were added to the high control wells, whereas HBSS only was added to all compound and low control wells. After covering assay plates with the lid, blood plates were kept for a 4 h incubation at 37° C. in the incubator, without shaking. For the detection of IFNb in dog plasma the ELISA Kit for Canine Interferon Beta (Biotrend #SEA222Ca) was used. Whole blood assay plates were centrifuged at 1000 g for 10 minutes at 8° C. […] was transferred with a 96 well pipetting robotics from the 384 well whole blood plate to the corresponding 96 well ELISA plate, pre-filled with 60 μl assay diluent in each well. Plates were sealed with microplate seals and kept at 4° C. overnight again. ELISA plates were brought to room temperature, followed by a 1 h incubation at 37° C. in the incubator. Detection Reagent A working solution was prepared by diluting Detection Reagent A 1:100 in Assay Reagent A. Liquid was then removed from the 96 well ELISA plate to add 100 μL Detection Reagent A working solution to each well. ELISA plates were covered with the plate sealer and incubated for 1 hour at 37° C. in the incubator. The 1× Wash buffer was prepared by diluting the 30× Wash Buffer Concentrate in H2O. Detection Reagent B working solution was prepared by diluting Detection Reagent B 1:100 in Assay Reagent B. The ELISA plates were washed three times with 350 μl wash buffer and afterwards inverted and blotted against absorbent paper to remove any liquid. 100 μL of Detection Reagent B working solution was added to each well of the ELISA plates, which are then covered with the plate sealer and incubated for 30 minutes at 37° C. in the incubator. After incubation the ELISA assay plates were washed five times with 350 μl wash buffer and were again inverted and blotted against absorbent paper to remove any remaining liquid. 90 μL of TMB Substrate was added to each well of the ELISA plates, which were then covered with the plate sealer and incubated for 15 minutes at 37° C. in the incubator. The reaction was stopped by adding 50 μL stop solution and absorbance was measured at 450 nm immediately.
For data evaluation and calculation, % control calculation of each well was based on the mean of high (cGAMP stimulated control) and mean of low (unstimulated control) controls by using the following standard 4 parameter logistic regression formula:
[y=(a−d)/(1+(x/c)^b)+d] • a=low value, • d=high value, • x=conc M, • c=EC50 M, • b=slope. Dog Liver Microsome (dLM) Assay

Sequence of STING (A0A8I3MH52 1-374): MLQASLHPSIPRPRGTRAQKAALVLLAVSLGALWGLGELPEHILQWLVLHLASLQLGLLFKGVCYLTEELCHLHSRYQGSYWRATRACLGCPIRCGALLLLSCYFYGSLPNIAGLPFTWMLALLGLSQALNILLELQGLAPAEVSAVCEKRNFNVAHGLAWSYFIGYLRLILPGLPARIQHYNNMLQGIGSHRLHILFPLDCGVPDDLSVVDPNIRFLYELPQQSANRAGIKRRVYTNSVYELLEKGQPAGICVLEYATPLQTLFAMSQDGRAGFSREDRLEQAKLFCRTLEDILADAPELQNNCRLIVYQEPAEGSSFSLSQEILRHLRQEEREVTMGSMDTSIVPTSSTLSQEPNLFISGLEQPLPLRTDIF

CC(=O)N1C[C@@H]2C[C@H]1CN2c1ccc(-n2nc(-c3c(F)ccc4nn(C)cc34)c3cccc(C)c32)cn1 [Example 30, 1-[(1S,4S)-5-(5-{5″-fluoro-2″,7-dimethyl-1H,2″H-[3,4″-biindazol]-1-yl}pyridin-2-yl)-2,5-diazabicyclo[2.2.1]heptan-2-yl]ethan-1-one]
Delta TM (dog STING (dSTING)): 30.8 °C | EC50 (STING): 227 nM

Cc1cccc2c(-c3cccc4nn(C)c(F)c34)nn(-c3ccc(N4CCOC(CC(=O)O)C4)nc3)c12 (single isomer, unassigned) [Example 72-1]
Delta TM (dog STING (dSTING)): 30.0 °C | EC50 (STING): 810 nM

Cc1cccc2c(-c3cccc4nn(C)c(F)c34)nn(-c3ccc(N4CCC(C(=O)O)CC4)nc3)c12 [Example 2, 1-(5-{3″-Fluoro-2″,7-dimethyl-1H,2″H-[3,4″-biindazol]-1-yl}pyridin-2-yl)piperidine-4-carboxylic acid]
Delta TM (dog STING (dSTING)): 34.5 °C | EC50 (STING): 236 nM

Cc1cccc2c(-c3ccc(F)c4nn(C)c(F)c34)nn(-c3ccc(N4CCC(C(=O)O)CC4)nc3)c12 [Example 53, 1-(5-{3″,7″-difluoro-2″,7-dimethyl-1H,2″H-[3,4″-biindazol]-1-yl}pyridin-2-yl)piperidine-4-carboxylic acid]
Delta TM (dog STING (dSTING)): 33.0 °C | EC50 (STING): 654 nM

Cc1cccc2c(-c3cccc4nn(C)c(F)c34)nn(-c3ccc(N4CC5CCC4CC5C(=O)O)nc3)c12 (single isomer, unassigned) [Example 20-4, 2-(5-{3'-fluoro-2',7-dimethyl-1H,2'H-[3,4'-biindazol]-1-yl}pyridin-2-yl)-2-azabicyclo[2.2.2]octane-5-carboxylic acid]
Delta TM (dog STING (dSTING)): 36.9 °C | EC50 (STING): 207 nM

CC(=O)N1CCN(c2ccc(-n3nc(-c4cccc5nn(C)c(F)c45)c4ccc(F)c(C)c43)cn2)CC1 [Example 66, 1-[4-(5-{5″,6-difluoro-2″,7-dimethyl-1H,2″H-[3,4″-biindazol]-1-yl}pyridin-2-yl)piperazin-1-yl]ethan-1-one]
Delta TM (dog STING (dSTING)): 25.8 °C | EC50 (STING): 179 nM

Cc1cccc2c(-c3c(F)ccc4nn(C)cc34)nn(-c3ccc(N4CC5CCC4CC5C(=O)O)nc3)c12 (single isomer, unassigned) [Example 28-3]
Delta TM (dog STING (dSTING)): 37.1 °C | EC50 (STING): 222 nM

Cc1cccc2c(-c3c(F)cc(F)c4nn(C)cc34)nn(-c3ccc(N4C[C@H]5C[C@@H]4C[C@@H]5C(=O)O)nc3)c12 (single isomer, unassigned) [Example 47-2]
Delta TM (dog STING (dSTING)): 35.5 °C | EC50 (STING): 200 nM

CC(=O)N1CCN(c2ccc(-n3nc(-c4c(F)cc(F)c5nn(C)cc45)c4cccc(C)c43)cn2)CC1 [Example 49, 1-[4-(5-{5″,7″-difluoro-2″,7-dimethyl-1H,2″H-[3,4″-biindazol]-1-yl}pyridin-2-yl)piperazin-1-yl]ethan-1-one]
Delta TM (dog STING (dSTING)): 30.5 °C | EC50 (STING): 416 nM

Cc1cccc2c(-c3ccc(F)c4nn(C)cc34)nn(-c3ccc(N4CCC(C(=O)O)CC4)nc3)c12 [Example 4, 1-(5-{7″-Fluoro-2″,7-dimethyl-1H,2″H-[3,4″-biindazol]-1-yl}pyridin-2-yl)piperidine-4-carboxylic acid]
Delta TM (dog STING (dSTING)): 31.0 °C | EC50 (STING): 757 nM

Cc1cccc2c(-c3c(F)cc(F)c4nn(C)cc34)nn(-c3ccc(N4CC[C@@H](CC(=O)O)C4)nc3)c12 [Example 45, 2-[(3S)-1-(5-{5″,7″-difluoro-2″,7-dimethyl-1H,2″H-[3,4″-biindazol]-1-yl}pyridin-2-yl)pyrrolidin-3-yl]acetic acid]
Delta TM (dog STING (dSTING)): 33.0 °C | EC50 (STING): 601 nM

Cc1cccc2c(-c3c(F)ccc4nn(C)cc34)nn(-c3ccc(N4C[C@@H]5C[C@H]4C[C@H]5C(=O)O)nc3)c12 [Example 27-1, (1S,4R,5R)-2-(5-{5″-fluoro-2″,7-dimethyl-1H,2″H-[3,4″-biindazol]-1-yl}pyridin-2-yl)-2-azabicyclo[2.2.1]heptane-5-carboxylic acid]
Delta TM (dog STING (dSTING)): 36.9 °C | EC50 (STING): 211 nM
